Laboratory results reported in publication PMC12040169 (PLOS Biology, 2025).

Assay: in vitro
Conditions: human, hela cells, % viability

O=C(O)CNC(=O)/C(=C/c1ccc(Br)cc1)NC(=O)c1ccc(Br)o1 [CBK262537]
viability at 28.5 h, 10 µM: 80.1%

CC(C)(C)OC(=O)NCCc1ccc(Nc2cc(-c3ccsc3)ncn2)cc1 [CBK090958]
viability at 28.5 h, 10 µM: 115%

O=C(NC(Cc1ccccc1)C(O)c1nccs1)C1CC=CCC1 (centres unmarked) [CBK284763]
viability at 28.5 h, 10 µM: 95.3%

Nc1cccc(-c2cncc(NCC3CCOCC3)n2)c1 [CBK037221]
viability at 28.5 h, 10 µM: 96.8%

Cc1ccc(S(=O)(=O)N(CC(=O)NCC2CCCO2)c2cccc(C)c2C)cc1 (centres unmarked) [CBK265339]
viability at 28.5 h, 10 µM: 72.7%

N#C/C(=C/c1ccc(-c2ccc(S(N)(=O)=O)cc2)o1)S(=O)(=O)c1ccc(Cl)cc1 [CBK266383]
viability at 28.5 h, 10 µM: 110%

O=C(CSc1nc2ccccc2c(=O)[nH]1)NCCO [CBK266469]
viability at 28.5 h, 10 µM: 96.2%

COc1ccc(-c2cc(C(=O)O)nn2C2CCS(=O)(=O)C2)cc1 (centres unmarked) [CBK286990]
viability at 28.5 h, 10 µM: 87.8%

Cn1c(=O)n(C)c2cc(S(=O)(=O)ON3C(=O)c4cccc5cc([N+](=O)[O-])cc(c45)C3=O)ccc21 [CBK267566]
viability at 28.5 h, 10 µM: 91.6%

Cc1ccccc1-c1nc(S(=O)(=O)c2ccc(Cl)cc2)c(NCC2CCCO2)o1 (centres unmarked) [CBK267668]
viability at 28.5 h, 10 µM: 113%

O=C(O)c1ccc(-c2ccc(N3CCN(C(=O)c4ccco4)CC3)nc2)cc1 [CBK037700]
viability at 28.5 h, 10 µM: 97.9%

Nc1nonc1C(=O)NCCNc1ccc([N+](=O)[O-])cn1 [CBK268279]
viability at 28.5 h, 10 µM: 97.7%

c1ccc(CNC2CCc3[nH]c4ccccc4c3C2)cc1 (centres unmarked) [CBK091587T]
viability at 28.5 h, 10 µM: 106%

CCC1CCCCN1C(=O)Cn1cnc2c(Cl)cc(Cl)cc2c1=O (centres unmarked) [CBK305833]
viability at 28.5 h, 10 µM: 90%

NNc1nccc(Nc2ccccc2C(=O)O)n1 [CBK263145]
viability at 28.5 h, 10 µM: 95.9%

Cc1ccc(S(=O)(=O)N(CC(=O)N/N=C\c2ccc3c(c2)OCO3)c2cccc3cccnc23)cc1 [CBK262478]
viability at 28.5 h, 10 µM: 101%

CC(C)(O)c1cn(C2CN(C(=O)c3sccc3-c3ccccc3)C2)nn1 [CBK305442]
viability at 28.5 h, 10 µM: 87.6%

CC1(C)CC(=O)c2cnc3cc(-c4ccco4)nn3c2C1 [CBK283142]
viability at 28.5 h, 10 µM: 102%

COc1cccc(-c2cnc(N(C)C)nc2C2CCCN2Cc2ccc3ncccc3c2)c1 (centres unmarked) [CBK286251]
viability at 28.5 h, 10 µM: 85.5%

Cc1ccc2c(c1)CCCN2C(=O)c1cnc2c(c1)c(C)nn2C [CBK305670]
viability at 28.5 h, 10 µM: 96%

COc1ccccc1C(=O)N1CCC(Cc2ccc(-c3cccc(C)c3)cc2)(C(N)=O)CC1 [CBK285792]
viability at 28.5 h, 10 µM: 89.8%

COc1ccc(Oc2nccc(N3CCCN(Cc4ccc(C(F)(F)F)cc4)CC3)n2)cc1OC [CBK084152]
viability at 28.5 h, 10 µM: 98.2%

O=C(NC(c1ccccc1)c1ccsc1)C1CCN(S(=O)(=O)c2cccc(Cl)c2)CC1 (centres unmarked) [CBK060188]
viability at 28.5 h, 10 µM: 97.7%

CC(C)(C)OC(=O)N1CCCN(Cc2nnc(-c3ccco3)o2)CC1 [CBK305271]
viability at 28.5 h, 10 µM: 103%

COc1ccc(Nc2nc(-c3cccnc3)cnc2N)cc1 [CBK063952]
viability at 28.5 h, 10 µM: 90.3%

O=c1[nH]c(=O)c2cc(S(=O)(=O)Nc3cccc(-c4ccc(F)cc4)c3)ccc2[nH]1 [CBK286394]
viability at 28.5 h, 10 µM: 84.2%

COc1ccccc1C(=O)N1CCC(Cc2ccc(-c3ccccc3)cc2)(C(N)=O)CC1 [CBK285774]
viability at 28.5 h, 10 µM: 100%

CC(=O)c1cc2c(N)c(C(N)=O)sc2nc1C [CBK100769]
viability at 28.5 h, 10 µM: 102%

CC1CCN(Cn2nc(COc3ccccc3)n(-c3ccccc3)c2=S)CC1 [CBK264247]
viability at 28.5 h, 10 µM: 97.3%

CN=C(S)N=C(Nc1ccccc1)c1ccccc1 [CBK261037]
viability at 28.5 h, 10 µM: 89.1%

Cn1c(/C=C/C=C/CN2CCN(Cc3ccccc3)CC2)nc2ccc([N+](=O)[O-])cc21 [CBK268281]
viability at 28.5 h, 10 µM: 91.2%

COc1cc(C)c(C)cc1S(=O)(=O)n1ccnc1C [CBK287579]
viability at 28.5 h, 10 µM: 108%

O=C(OCn1nnc2ccccc2c1=O)c1cccc([N+](=O)[O-])c1 [CBK264887]
viability at 28.5 h, 10 µM: 104%

Cc1ccc(/C=N\NC(=O)c2cccc(Cl)c2)s1 [CBK016469]
viability at 28.5 h, 10 µM: 90.8%

O=C(Nc1cccnc1)c1cc(S(=O)(=O)N2CCCCC2)c(Cl)cc1Cl [CBK264567]
viability at 28.5 h, 10 µM: 91.9%

CN1CCN(C2=NC(=O)CC(C(=O)Nc3ccccc3)N2)CC1 (centres unmarked) [CBK267884]
viability at 28.5 h, 10 µM: 97.1%

O=C(Nc1ccc(OCc2ccoc2)cc1C(=O)O)c1ccc(Cl)cc1Cl [CBK003768D]
viability at 28.5 h, 10 µM: 87.5%

Cc1ccc(N(Cc2ccccc2OC(=O)c2cccnc2)C2=NS(=O)(=O)c3ccccc32)cc1 [CBK265760]
viability at 28.5 h, 10 µM: 88.4%

CCCN1CC(NS(=O)(=O)c2cc(-n3cccn3)ccc2OC)CC1=O (centres unmarked) [CBK307285]
viability at 28.5 h, 10 µM: 107%

O=C(Cn1c2ccccc2c(=O)c2ccccc21)Nc1ccc(-n2cncn2)nc1 [CBK295350]
viability at 28.5 h, 10 µM: 93.1%

O=C(CSc1ccc(Cl)cc1)Nc1cccc(-c2nc3ncccc3o2)c1 [CBK264989]
viability at 28.5 h, 10 µM: 105%

CCOc1ccc(S(=O)(=O)N2CCCN(CC(C)C)CC2)c2cccnc12 [CBK062758]
viability at 28.5 h, 10 µM: 97%

COc1ccc(CN2C(=S)N(c3ccc(Cl)cc3)[C@H]3[C@@H]2[C@H]2OC(=O)[C@@H]3C[C@H]2O)cc1 [CBK288935]
viability at 28.5 h, 10 µM: 99.8%

COc1ccc(S(=O)(=O)N(CC(=O)O)C2CCCCC2)cc1Cl [CBK267997]
viability at 28.5 h, 10 µM: 81.5%

Cc1cc(S(=O)(=O)NCC(=O)O)ccc1F [CBK266632]
viability at 28.5 h, 10 µM: 112%

Cc1noc(C)c1C(=O)N1CCC[C@@H](C(=O)c2ccccc2F)C1 [CBK282249]
viability at 28.5 h, 10 µM: 90.5%

CC1CN(C(C)N2CC(C)OC2=O)C(=O)O1 (centres unmarked) [CBK022981]
viability at 28.5 h, 10 µM: 89.8%

CC(=O)NCc1ccc(C)n1C [CBK046356]
viability at 28.5 h, 10 µM: 106%

Cc1cc(C[C@@H]2COC[C@H]2NCc2ccc(C)c(C)c2)on1 [CBK284883]
viability at 28.5 h, 10 µM: 106%

CC(=O)c1ccc(S(=O)(=O)NCc2ccc(C(F)(F)F)cc2)cc1 [CBK044314]
viability at 28.5 h, 10 µM: 108%

Cc1nc(N2CCOCC2)cc(N2CCN(C(=O)C3CCCC3)CC2)n1 [CBK307602]
viability at 28.5 h, 10 µM: 87.5%

COc1cc2c(cc1OC)C(C)N(Cc1cc(C)c(O)c(C)c1)CC2 (centres unmarked) [CBK074659C]
viability at 28.5 h, 10 µM: 99.9%

O=C(CN1C(=O)CSc2ccccc21)Nc1ccccc1C(=O)N1CCOCC1 [CBK267343]
viability at 28.5 h, 10 µM: 104%

CN(C)Cc1cc(-c2ccc(CNC(=O)C3CC3)cc2)nn1C [CBK283470]
viability at 28.5 h, 10 µM: 80.5%

CN1CCN(S(=O)(=O)c2ccc3oc(=O)ccc3c2)CC1 [CBK062431]
viability at 28.5 h, 10 µM: 118%

CCCc1nn(CC(=O)N2CCCC2)c(=O)c2cc3ccsc3n12 [CBK284145]
viability at 28.5 h, 10 µM: 85.5%

O=C(NC1CCc2ccccc21)N1CCN(c2ccccc2)CC1 (centres unmarked) [CBK155208]
viability at 28.5 h, 10 µM: 92.2%

CC(C)c1ccc(N2C(=O)N[C@@H]3CCN(S(=O)(=O)c4ccccc4)[C@@H]3C2=O)cc1 [CBK289289]
viability at 28.5 h, 10 µM: 114%

COCc1cccc(-c2nccnc2OC(c2ccccc2)c2ccccc2)c1 [CBK106960]
viability at 28.5 h, 10 µM: 101%

O=C1c2ccc(S(=O)(=O)c3ccc4c(c3)C(=O)N(c3nccs3)C4=O)cc2C(=O)N1c1nccs1 [CBK261335]
viability at 28.5 h, 10 µM: 105%

O=C(c1cc(-c2ccc(Cl)cc2)[nH]n1)N1CCN(c2ncccn2)CC1 [CBK116551]
viability at 28.5 h, 10 µM: 93%

O=C(COc1ccc2ccccc2c1)Nc1ccc(S(=O)(=O)N2CCc3ccccc32)cc1 [CBK263802]
viability at 28.5 h, 10 µM: 91.5%

NC1CC(c2cc(NCc3cn4ccccc4n3)ncn2)C1 (centres unmarked) [CBK306631]
viability at 28.5 h, 10 µM: 112%

CN1CCCC(Cc2cc(-c3ccccc3)no2)(C(=O)N(C)C)C1 (centres unmarked) [CBK281674]
viability at 28.5 h, 10 µM: 102%

c1ccc(Nc2nc(-c3ccc4c(c3)OCO4)cn3ccnc23)cc1 [CBK037494]
viability at 28.5 h, 10 µM: 92.2%

O=C(Oc1ccc(N(C(=O)c2ccncc2)S(=O)(=O)c2cccc3cccnc23)c2ccccc12)c1ccncc1 [CBK266915]
viability at 28.5 h, 10 µM: 79.5%

CC(C)C(=O)N1CCCC1c1cc2n(n1)[C@@H](C(F)(F)F)C[C@@H](C)N2 (some centres unmarked) [CBK282966]
viability at 28.5 h, 10 µM: 106%

Cc1cccc(-n2cnc3cc(C(=O)NCc4cccnc4)ccc32)c1 [CBK294455]
viability at 28.5 h, 10 µM: 77.5%

CCOC(=O)CNS(=O)(=O)c1cccc2cccnc12 [CBK034440]
viability at 28.5 h, 10 µM: 115%

COc1ccc(N(CC(=O)O)S(=O)(=O)c2ccccc2[N+](=O)[O-])c(OC)c1 [CBK262729]
viability at 28.5 h, 10 µM: 92.6%

Cc1ccc(S(=O)(=O)Nc2cc(Sc3nc(C)cc(C)n3)c(O)c3ccccc23)cc1 [CBK263313]
viability at 28.5 h, 10 µM: 79%

Clc1ccc(COc2nccnc2OC2CCN(CCOc3ccccc3)CC2)cc1Cl [CBK083121T]
viability at 28.5 h, 10 µM: 95.9%

C[C@]12CN(C(=O)C3CC3)C[C@H]1NC(=O)c1ccccc1C2=O [CBK281660]
viability at 28.5 h, 10 µM: 102%

Cc1nc(C)c(C(=O)N2CCC(c3cc4ncccc4[nH]3)CC2)s1 [CBK283396]
viability at 28.5 h, 10 µM: 101%

CN(C)S(=O)(=O)c1cccc(C(=O)NCCc2ccccc2)c1 [CBK267793]
viability at 28.5 h, 10 µM: 91.3%

CC(C)NC(=O)N1Cc2nc[nH]c2C[C@H]1c1nc(-c2ccc3c(c2)OCO3)no1 [CBK289001]
viability at 28.5 h, 10 µM: 94.5%

O=C(OCCc1cccnc1)N1CCSCC1 [CBK200160]
viability at 28.5 h, 10 µM: 103%

O=C(Nc1nnc(-c2ccco2)o1)c1ccc2c(c1)CCCC2 [CBK287425]
viability at 28.5 h, 10 µM: 79.1%

CS(=O)(=O)c1ccc2nc(NC(=O)c3ccco3)sc2c1 [CBK287341]
viability at 28.5 h, 10 µM: 95.4%

Cc1ccc(S(=O)(=O)NC(=O)c2cc(C)n(-c3ccc(N(C)C)cc3)c2C)cc1 [CBK296085]
viability at 28.5 h, 10 µM: 92.9%

COc1ccc(S(=O)(=O)NCCSCc2cccc(C)c2)cc1Cl [CBK268477]
viability at 28.5 h, 10 µM: 100%

O=C1CCc2cc(S(=O)(=O)NC(c3ccccc3)c3ccccc3)ccc2N1 [CBK286367]
viability at 28.5 h, 10 µM: 93.4%

Cc1nc2n(n1)C(c1ccccn1)C1=C(CC(C)CC1=O)N2 (centres unmarked) [CBK288230]
viability at 28.5 h, 10 µM: 82.9%

COc1ccc2oc(C(=O)N(C)CC(C)OC)c(C)c2c1 (centres unmarked) [CBK282037]
viability at 28.5 h, 10 µM: 94.4%

COc1ccc(C(=O)N/C(=C/c2ccc([N+](=O)[O-])cc2)c2nc3ccc(C(F)(F)F)cc3[nH]2)cc1OC [CBK263199]
viability at 28.5 h, 10 µM: 104%

Cc1nn(CCC(=O)NCCN2CCC(C)CC2)c(C)c1Cl [CBK281571]
viability at 28.5 h, 10 µM: 104%
